Here are results for 20 molecules from ChEMBL document CHEMBL1201862, “PubChem BioAssay data set” (2004).

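Cells were grown in 96-well plates and exposed to each compound for 48 hours at five concentrations; endpoints were interpolated linearly between bracketing concentrations, or set to the highest concentration if not reached. GI50 = concentration required for 50% inhibition of growth.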 Activity calls are given as the source filed them. No stated cut-off is given here; in the data, active = GI50 up to about 1.1 µM and inactive = higher.

What all share (experiment): inhibition of tumour cell growth, NCI panel, 48 h
For assay [1], the system named is XF498.
Assay [2] has as its system M19-MEL.
The subject of assay [3] is KM-20L2.
The subject of assay [4] is HOP-18.
Assay [5] concerns SNB-78.
Assay [6] concerns DMS-114.
Assay [7] concerns DLD-1.
The subject of assay [8] is 786-0.
In assay [9] the test system is RXF 631.

As for `COc1ccc(/C(Cl)=C(\CN(C)C)c2ccc(OC)c(OC)c2)cc1OC`, the GI50 in [1] is 19.8 µM (inactive); in assay [2], > 100 µM (inactive); in assay [3], > 100 µM (inactive); in assay [4], > 100 µM (inactive); in assay [5], > 100 µM (inactive).
For `CCCC[S+]([O-])CC(CO)NC(=O)/C=C/c1c(C)[nH]c(=O)[nH]c1=O` (stereo not given), the GI50 in assay [1] was 4.18 µM (inactive); in assay [2], 2.22 µM (inactive); in assay [3], 5.64 µM (inactive); in assay [4], 31.6 µM (inactive); in assay [6] it was 6.41 µM (inactive); in assay [7], 12.1 µM (inactive).
With `O=C(Nc1cccc([N+](=O)[O-])c1)C(=O)C(C(=O)c1ccccc1F)C1OC(=O)C2C=CC=CC21` (stereo not given), the GI50 in [1] was 40.3 µM (inactive); in assay [2] it was 31.6 µM (inactive); in assay [3], 41.2 µM (inactive); in assay [5] it was 36.6 µM (inactive); in assay [7] it was 43.4 µM (inactive).
As for `S=c1sc2c(s1)SC(c1ccccc1)CS2` (stereo not given), the GI50 in assay [2] was > 100 µM (inactive); in assay [3], > 100 µM (inactive); in assay [4], > 100 µM (inactive); in assay [6], > 47.9 µM (inactive); in assay [5] it was > 100 µM (inactive); in [7] it was > 100 µM (inactive).
With `COc1ccc(NC(=O)CC(=O)N2N=C(C)C(/N=N\c3ccc(S(=O)(=O)c4ccc(/N=N/C5C(=O)N(C(=O)CC(=O)Nc6ccc(OC)cc6)N=C5C)cc4)cc3)C2=O)cc1` (stereo not given), the GI50 in assay [8] is > 100 µM (inactive).
Regarding `CC(c1ccccc1)N1CCN(C(C)c2ccccc2)CC1` (stereo not given), the GI50 in [8] was > 100 µM (inactive).
Turning to `CSc1nc(NC2OCC(OC(C)=O)C(OC(C)=O)C2OC(C)=O)c(/N=C(\C)C(C)=O)c(=O)[nH]1` (stereo not given), the GI50 in [1], in assay [4], in [6], in [5] and in assay [7] was > 100 µM (inactive) in each case.
For `COc1ccc([C@H]2c3cc4c(cc3OC(O)(CO)[C@H]2C(=O)O)OCO4)c(OC)c1.COc1ccc([C@H]2c3cc4c(cc3OC3(O)COC(=O)[C@@H]23)OCO4)c(OC)c1` (stereo not given in full), the GI50 in assay [1] was > 100 µM (inactive); in assay [2] it was 61.7 µM (inactive); in assay [3], > 100 µM (inactive); in [4], > 100 µM (inactive); in assay [6], > 100 µM (inactive); in [5], > 100 µM (inactive). For the same molecule, in assay [7], the GI50 was 91.8 µM (inactive).
For `COc1ccc2c(C)cc(N/N=C(\C)C=O)nc2c1`, in assay [8], the GI50 is 11.6 µM (inactive).
As for `COC(=O)C(C)NP(=O)(N1CC1)N1CC1` (stereo not given), the GI50 in [1] was > 100 µM (inactive); in assay [9], > 100 µM (inactive); in [3], > 100 µM (inactive); in assay [6], 66.4 µM (inactive); in assay [5], > 100 µM (inactive); in assay [7] it was > 100 µM (inactive).
For the molecule `Cc1ccc(C)c(NC(=O)CCC(=O)CC(=O)C(C)(C)C)c1`, the GI50 in assay [1], in assay [8], in assay [2], in [3], in assay [4] and in assay [6] was > 100 µM (inactive) in each case. The GI50 in assay [5] and in assay [7] was > 100 µM (inactive) throughout.
As to `O=S(=O)(C1=CC(S(=O)(=O)c2ccccc2)CN(Cc2ccccc2)C1c1cccc2ccccc12)c1ccccc1` (stereo not given), the GI50 in assay [9], in assay [8], in assay [2], in [3], in assay [6] and in assay [5] was > 69 µM (inactive) throughout. The GI50 in assay [7] was > 69 µM (inactive).
With `O=C1Nc2ccccc2N/C1=C\C(=O)C(F)F`, in [8], the GI50 is > 100 µM (inactive).
For `CN(C)CCNc1nc2c(c(=O)n(C)c(=O)n2C)n1C`, in [8], the GI50 is > 100 µM (inactive).
For the molecule `Sc1nnc(-c2ccnc(-c3nnc(S)[nH]3)c2)[nH]1`, the GI50 in [1] is > 79.1 µM (inactive); in assay [8] it was > 100 µM (inactive); in assay [2], > 100 µM (inactive); in [3] it was > 100 µM (inactive); in assay [4] it was > 100 µM (inactive); in [6], > 100 µM (inactive). Moreover, the GI50 in assay [5] and in [7] was > 100 µM (inactive) throughout.
With `CCOC(=O)c1nc2cc(C(F)(F)F)ccc2nc1Nc1ccc(C(=O)NC(C(=O)OCC)C(=O)OCC)cc1`, the GI50 in assay [8] was 14.3 µM (inactive).
With `COc1cc(CCN)c(OC)c(OC)c1`, in [8], the GI50 was > 100 µM (inactive).
On to `COc1cc(/N=N\c2cccc(S(=O)(=O)O)c2)ccc1/N=N\c1ccc(/C=C/c2ccc(-n3on3-c3ccc(/C=C/c4ccc(/N=N/c5ccc(/N=N\c6cccc(S(=O)(=O)O)c6)cc5OC)cc4S(=O)(=O)O)c(S(=O)(=O)O)c3)cc2S(=O)(=O)O)c(S(=O)(=O)O)c1`, for which the GI50 in assay [1] is > 83 µM (inactive); in assay [2], > 100 µM (inactive); in assay [3], > 100 µM (inactive); in assay [4], > 100 µM (inactive); in assay [6], > 100 µM (inactive); in assay [5], > 100 µM (inactive). Also, the GI50 in [7] is > 100 µM (inactive).
Turning to `COc1cc(C2c3cc4c(cc3[C@@H](Nc3ccc(Oc5ccccc5)cc3)C3COC(=O)[C@H]23)OCO4)cc(OC)c1O` (stereo not given in full), the GI50 in [1] is 5.26 µM (inactive); in [2], 4.36 µM (inactive); in assay [3] it was 1.17 µM (inactive); in assay [4], 4.47 µM (inactive); in assay [6], 0.597 µM (active); in [5] it was > 61 µM (inactive). Besides, in [7], the GI50 was 3.95 µM (inactive).
On to `CCC(=C/[C@H](C)C/C=C/C(C)=C/[C@@H](C)C(=O)[C@@H](C)[C@H](O)[C@@H](C)CC)/C=C/[C@H]1CC=CC(=O)O1` [CALLYSTATIN A], for which the GI50 in assay [8] is < 0.0012 µM (active).
